What was measured:
[1] = biological target: T1, TGF-beta receptor type-1 (Homo sapiens) (UniProt P36897)
T1 sequence (whole entry): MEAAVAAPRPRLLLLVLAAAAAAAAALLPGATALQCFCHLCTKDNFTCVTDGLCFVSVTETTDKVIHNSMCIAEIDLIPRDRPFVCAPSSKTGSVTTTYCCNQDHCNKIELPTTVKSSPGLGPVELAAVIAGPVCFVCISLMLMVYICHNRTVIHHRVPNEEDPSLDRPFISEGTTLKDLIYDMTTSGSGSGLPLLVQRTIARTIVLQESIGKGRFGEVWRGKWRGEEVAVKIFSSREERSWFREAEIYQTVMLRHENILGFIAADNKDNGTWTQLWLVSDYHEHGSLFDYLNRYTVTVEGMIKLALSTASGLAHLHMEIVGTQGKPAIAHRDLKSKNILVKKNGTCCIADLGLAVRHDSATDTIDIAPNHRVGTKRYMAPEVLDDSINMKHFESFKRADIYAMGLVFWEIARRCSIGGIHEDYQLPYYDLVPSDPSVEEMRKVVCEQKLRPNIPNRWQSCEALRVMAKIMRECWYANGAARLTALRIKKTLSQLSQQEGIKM
Description: Antagonistic activity at TGFBR1

[2] = biological target: T2, TGF-beta receptor type-1 (Homo sapiens, UniProt P36897)
T2 sequence (P36897 whole entry): T1 sequence (whole entry)
Description: Antagonistic activity at TGFBR1

Row | logIC50 [1] | Structure (SMILES) | also measured
1 | -0.443 | CCc1cccc(-c2[nH]c(CNc3ccc(C#N)cc3)nc2-c2ccc3c(c2)OCO3)n1 | 
2 |  | OCc1ccc(-c2nc(-c3ccccn3)c(-c3ccc4c(c3)OCO4)[nH]2)cc1 | logKi [1]: -0.585
3 | -1.38 | Cc1cccc(-c2[nH]c(CNc3ccc(C#N)cc3)nc2-c2ccc3nccnc3c2)n1 | 
4 | -1.14 | CCc1cccc(-c2[nH]c(CNc3cccc(C#N)c3)nc2-c2ccc3c(c2)OCO3)n1 | 
5 | -1.82 | CCc1cccc(-c2[nH]c(CNc3cccc(C(N)=O)c3)nc2-c2ccc3nccnc3c2)n1 | 
6 |  | Cc1cccc(-c2[nH]c(CNc3cccc(C(N)=O)c3)nc2-c2ccc3nccnc3c2)n1 | logKi [1]: -2
7 | -0.815 | Cc1cccc(-c2[nH]c(NCc3ccc(C#N)cc3)nc2-c2ccc3c(c2)OCO3)n1 | 
8 | -0.582 | Cc1cccc(-c2[nH]c(CNc3ccc(C(N)=O)cc3)nc2-c2ccc3c(c2)OCO3)n1 | 
9 |  | CCc1cccc(-c2[nH]c(CNc3ccc(C#N)cc3)nc2-c2ccc3nccnc3c2)n1 | logKi [1]: -1.32
10 | -1.62 | Cc1cccc(-c2[nH]c(NCc3cccc(C#N)c3)nc2-c2ccc3c(c2)OCO3)n1 | 
11 | -0.924 | CCc1cccc(-c2[nH]c(CNc3cccc(C#N)c3)nc2-c2ccc3nccnc3c2)n1 | 
12 | 0.47 | N#Cc1ccc(-c2nc(-c3ccc4c(c3)OCO4)c(-c3ccccn3)[nH]2)cc1 | 
13 | -0.415 | CCc1cccc(-c2[nH]c(CNc3ccc(C(N)=O)cc3)nc2-c2ccc3c(c2)OCO3)n1 | 
14 | -1.68 | Cc1cccc(-c2[nH]c(CNc3cccc(C(N)=O)c3)nc2-c2ccc3c(c2)OCO3)n1 | 
15 | -1.12 | Cc1cccc(-c2[nH]c(CNc3ccc(C(N)=O)cc3)nc2-c2ccc3nccnc3c2)n1 | 
16 | -1.34 | Cc1cccc(-c2[nH]c(CNc3cccc(C#N)c3)nc2-c2ccc3c(c2)OCO3)n1 | 
17 | -0.77 | O=C(O)c1ccc(-c2nc(-c3ccc4c(c3)OCO4)c(-c3ccccn3)[nH]2)cc1 | 
18 | -1.34 | CCc1cccc(-c2[nH]c(CNc3cccc(C(N)=O)c3)nc2-c2ccc3c(c2)OCO3)n1 | 
19 | -1.33 | Cc1cccc(-c2[nH]c(C(C)(C)C)nc2-c2ccc3c(c2)OCO3)n1 | 
20 | -1.92 | Cc1cccc(-c2[nH]c(CNc3cccc(C#N)c3)nc2-c2ccc3nccnc3c2)n1 | 

Row | Structure (SMILES) | logIC50 [1] | also measured
21 | Cc1cccc(-c2[nH]c(CNc3ccc(C#N)cc3)nc2-c2ccc3c(c2)OCO3)n1 | -0.759 | IC50 [2]: 171 nM

From ChEMBL document CHEMBL1155424, “3D-QSAR and docking studies on transforming growth factor (TGF)-beta receptor 1 antagonists” (Bioorg Med Chem Lett, 2010)
